Data from the METLIN SMRT retention time set (Domingo-Almenara et al. 2019).

Assay: gradient 5% acetonitrile 3 min, to 50% in 2 min, to 85% in 15 min, held 3 min, 100 µL/min
Conditions: column: Zorbax Extend-C18 2.1 x 50 mm; eluents: water / acetonitrile, 0.1% formic acid
Outline: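 In both positive and negative ionization mode, a quadrupole time-of-flight mass spectrometer coupled to HPLC analyzed pure standards run in mixtures of ~100 molecules. The Zorbax Extend-C18 column (2.1 × 50 mm, 1.8 μm) was operated at 100 μL/min with water and acetonitrile, each containing 0.1% formic acid. The dead volume was 40 μL and the dwell volume 900 μL. Retention time came from adduct peaks that were computationally picked and individually inspected by hand.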

Row | SMILES | RP-LC retention time
1 | Cn1c(=O)sc2cc(S(=O)(=O)N3CCC(C(=O)NC4CCCCCC4)CC3)ccc21 | 896 s
2 | COc1cccc(S(=O)(=O)NCc2cccnc2-c2ccc(C)cc2)c1 | 695 s
3 | CCC1CCCCN1CCCNC(=O)CCc1cc2ccccc2[nH]c1=O (configuration not stated) | 598 s
4 | CC1SC(C)C(=O)N(CC(=O)NCc2ccco2)C1=O (configuration not stated) | 685 s
5 | O=C(c1cnn(-c2ccccc2)n1)N1CCC(c2nnc(-c3ccc(F)cc3)o2)CC1 | 888 s
6 | O=C(C1CCN(c2cnc(N3CCOCC3)nc2)CC1)N1CCCCCC1 | 684 s
7 | O=C(Cc1ccc(Br)cc1)NCC(=O)N1CCCc2ccccc21 | 876 s
8 | CCOC(=O)c1oc2ccccc2c1NC(=O)C1CCCN1S(C)(=O)=O (configuration not stated) | 796 s
9 | COC(=O)C1=CN(c2ccc(Br)cc2)c2ccccc2S1(=O)=O | 908 s
10 | CCOC(=O)c1c(C)c(CCC(=O)NCc2ccco2)n(C)c1C | 792 s
11 | CCc1nnc(NC(=O)c2c[nH]c3c(Cl)cccc3c2=O)s1 | 693 s
12 | CCC(C)NC(=O)N1CC(c2nc(CCOCc3ccccc3)no2)C1 (configuration not stated) | 812 s
13 | COc1cc(NC(=O)Nc2c(-c3cccnc3)[nH]c3ccccc23)cc(OC)c1 | 679 s
14 | CC(C)NC(=O)c1ccc2c(c1)nc(CN(C)C(=O)NCc1ccco1)n2C | 602 s
15 | Cn1c(=O)c(=O)n(CC(=O)NCc2cccc(Br)c2)c2cccnc21 | 717 s
16 | CC(C)(C)c1csc(-c2csc(S(=O)(=O)NCc3ccc4c(c3)OCO4)c2)n1 | 1170 s
17 | O=C(c1cccn1Cc1noc(-c2ccc(Cl)cc2)n1)N1CCCCCC1 | 1160 s
18 | COc1ccc(NC(=O)N2CCC(c3nc(C(=O)N4CCCC4)c(C)o3)CC2)cc1 | 727 s
19 | COC(=O)C1C(=O)C2=C(CC1C)NC(C)=C(C(=O)OCCOC(C)C)C2c1ccccc1F (configuration not stated) | 914 s

Row | SMILES | RP-LC retention time
20 | CCCN1C(=O)COc2ccc(-c3csc(NC(=O)/C=C/c4ccc(OCC)c(OC)c4)n3)cc21 | 1090 s
21 | CC(Cc1ccco1)NC(=O)CN1C(=O)CN(C(=O)NCc2ccccc2)c2ccccc21 (configuration not stated) | 816 s
22 | Cc1cccc(Nc2c(-c3nc(C)no3)cnc3nc(C)ccc23)c1 | 762 s
23 | CN1C(=O)c2cc(C(=O)Nc3ccccc3Cl)nn2CC1(C)C(=O)NC1CCCCC1 (configuration not stated) | 887 s
24 | Cc1cc(C(=O)Nc2ccc3c(c2)CCC(=O)N3)no1 | 637 s
25 | O=C(Nc1ccccc1)c1c(O)c2cccnc2n(-c2cccc(F)c2)c1=O | 1210 s
26 | CN(CC(=O)N1CCN(C2CCCC2)CC1)S(=O)(=O)c1ccc2c(c1)CCCC(=O)N2 | 588 s
27 | Cc1[nH]c(C(=O)N2CCCC(C(=O)NCC3CCCO3)C2)c(C)c1C(=O)OC(C)C (configuration not stated) | 701 s
28 | CCc1ccc(NC(=O)CSC2=C(C#N)C3(CCCCC3)C(C#N)C(=O)N2)cc1 (configuration not stated) | 1030 s
29 | CC1CCCCN1CCCNC(=O)Cn1ccc2cc(S(=O)(=O)N3CCCCCC3)ccc21 (configuration not stated) | 682 s
30 | O=C(CSc1nccn(-c2ccc(F)c(F)c2)c1=O)NCc1ccccc1Cl | 816 s
31 | CCc1nnc(-c2ccc3ccn(CC(=O)Nc4ccc(NC(C)=O)cc4)c3c2)o1 | 703 s
32 | Cc1nc(-c2ccccn2)cc2nn(CC(=O)N3CCOCC3)c(=O)n12 | 754 s
33 | Cc1ccc(C(=O)N2CCC3(CC2)N=C(c2ccc(Cl)cc2)NO3)s1 | 901 s
34 | O=C(NC1CCCC1)NC1CCN(c2nc3cccnc3n(Cc3ccccc3)c2=O)CC1 | 990 s
35 | CCOc1ccc(NC(=O)Cc2cn(C)c3ncccc23)cc1 | 712 s
36 | Cc1cc(C)c2c(N3CCCC3)nc(C(=O)NC(C)c3ccccn3)nc2n1 (configuration not stated) | 586 s
37 | Cc1cc(N(C)C)n2nc(CN3CCCC(C)C3)nc2n1 (configuration not stated) | 536 s
